Active and inactive are the calls of the source. The calls are words filed in the database; no cut-off is given here.
Columns and labels:
[1] = test system: A549; assay: Cell cycle arrest in human A549 cells assessed as accumulation at G1 phase at 0.06 uM incubated for 12 hrs by propidium iodide staining based flow cytometry analysis (Rvb=49.49%); type: functional
[2] = test system: A549; assay: Induction of apoptosis in human A549 cells assessed as increase in cleaved caspase8 expression at 0.5 to 2 uM incubated for 8 hrs by western blot analysis; type: functional, cell-based
[3] = test system: A549; assay: Cell cycle arrest in human A549 cells assessed as accumulation at G2 phase at 0.27 uM incubated for 12 hrs by propidium iodide staining based flow cytometry analysis (Rvb=11.7%); type: functional
[4] = test system: A549; assay: Induction of apoptosis in human A549 cells assessed as increase in Fas-L expression at 0.5 to 2 uM incubated for 8 hrs by western blot analysis; type: functional, cell-based
[5] = test system: A549; assay: Cell cycle arrest in human A549 cells assessed as accumulation at G2 phase at 0.27 uM incubated for 24 hrs by propidium iodide staining based flow cytometry analysis (Rvb=18.01%); type: functional
[6] = test system: A549; assay: Induction of apoptosis in human A549 cells assessed as viable cells at 0.4 uM incubated for 24 hrs by AnnexinV-FITC/propidium iodide staining-based flow cytometric analysis (reference value: 88.1%); type: functional; details: A549, 24 h, read-out: Activity
[7] = test system: A549; assay: Cell cycle arrest in human A549 cells assessed as accumulation at G1 phase at 0.27 uM incubated for 24 hrs by propidium iodide staining based flow cytometry analysis (Rvb=55.3%); type: functional
[8] = test system: A549; assay: Induction of apoptosis in human A549 cells assessed as increase in Fas expression at 0.5 to 2 uM incubated for 8 hrs by western blot analysis; type: functional, cell-based
[9] = test system: A549; assay: Induction of apoptosis in human A549 cells assessed as early apoptotic cells at 0.8 uM incubated for 24 hrs by AnnexinV-FITC/propidium iodide staining-based flow cytometric analysis (reference value: 4.1%); type: functional
[10] = test system: A549; assay: Induction of apoptosis in human A549 cells assessed as increase in BAX expression incubated for 8 hrs by western blot analysis; type: functional, cell-based
[11] = test system: A549; assay: Cell cycle arrest in human A549 cells assessed as accumulation at G1 phase at 0.27 uM incubated for 12 hrs by propidium iodide staining based flow cytometry analysis (Rvb=49.49%); type: functional
[12] = test system: A549; assay: Cell cycle arrest in human A549 cells assessed as accumulation at G1 phase at 0.18 uM incubated for 24 hrs by propidium iodide staining based flow cytometry analysis (Rvb=55.3%); type: functional
[13] = test system: A549; assay: Induction of apoptosis in human A549 cells assessed as decrease in Cdk4 expression incubated for 8 hrs by western blot analysis; type: functional, cell-based
[14] = test system: A549; assay: Cell cycle arrest in human A549 cells assessed as accumulation at S phase at 0.18 uM incubated for 24 hrs by propidium iodide staining based flow cytometry analysis (Rvb=27.61%); type: functional
[15] = test system: A549; assay: Induction of apoptosis in human A549 cells assessed as necrotic cells at 1.2 uM incubated for 24 hrs by AnnexinV-FITC/propidium iodide staining-based flow cytometric analysis (reference value: 3.6%); type: functional
[16] = test system: A549; assay: Induction of apoptosis in human A549 cells assessed as nuclear fragmentation at 0.06 to 0.18 uM incubated for 48 hrs by Hoechst 33342 staining-based fluorescence microscopy; type: functional, cell-based
[17] = test system: A549; assay: Induction of apoptosis in human A549 cells assessed as increase in cleaved PARP expression at 0.5 to 2 uM incubated for 8 hrs by western blot analysis; type: functional, cell-based
[18] = test system: A549; assay: Induction of apoptosis in human A549 cells assessed as necrotic cells at 0.8 uM incubated for 24 hrs by AnnexinV-FITC/propidium iodide staining-based flow cytometric analysis (reference value: 3.6%); type: functional
[19] = test system: A549; assay: Cell cycle arrest in human A549 cells assessed as accumulation at S phase at 0.06 uM incubated for 12 hrs by propidium iodide staining based flow cytometry analysis (Rvb=38.46%); type: functional
[20] = test system: A549; assay: Induction of apoptosis in human A549 cells assessed as early apoptotic cells at 0.2 uM incubated for 24 hrs by AnnexinV-FITC/propidium iodide/propidium iodide staining-based flow cytometric analysis (reference value: 4.1%); type: functional
[21] = test system: A549; assay: Induction of apoptosis in human A549 cells assessed as decrease in Bcl-2 expression incubated for 8 hrs by western blot analysis; type: functional, cell-based
[22] = test system: A549; assay: Induction of apoptosis in human A549 cells assessed as necrotic cells at 0.2 uM incubated for 24 hrs by AnnexinV-FITC/propidium iodide staining-based flow cytometric analysis (reference value: 3.6%); type: functional
[23] = test system: A549; assay: Cell cycle arrest in human A549 cells assessed as accumulation at S phase at 0.06 uM incubated for 24 hrs by propidium iodide staining based flow cytometry analysis (Rvb=27.61%); type: functional
[24] = test system: A549; assay: Induction of apoptosis in human A549 cells assessed as viable cells at 1.2 uM incubated for 24 hrs by AnnexinV-FITC/propidium iodide staining-based flow cytometric analysis (reference value: 88.1%); type: functional; details: A549, 24 h, read-out: Activity
[25] = test system: A549; assay: Cell cycle arrest in human A549 cells assessed as accumulation at G2 phase at 0.18 uM incubated for 24 hrs by propidium iodide staining based flow cytometry analysis (Rvb=18.01%); type: functional
[26] = test system: A549; assay: Induction of apoptosis in human A549 cells assessed as late apoptotic cells at 0.6 uM incubated for 24 hrs by AnnexinV-FITC/propidium iodide staining-based flow cytometric analysis (reference value: 4.2%); type: functional
[27] = test system: A549; assay: Induction of apoptosis in human A549 cells assessed as necrotic cells at 0.6 uM incubated for 24 hrs by AnnexinV-FITC/propidium iodide staining-based flow cytometric analysis (reference value: 3.6%); type: functional
[28] = test system: A549; assay: Cell cycle arrest in human A549 cells assessed as accumulation at G2 phase at 0.18 uM incubated for 12 hrs by propidium iodide staining based flow cytometry analysis (Rvb=11.7%); type: functional
[29] = test system: A549; assay: Cell cycle arrest in human A549 cells assessed as accumulation at G1 phase at 0.06 uM incubated for 24 hrs by propidium iodide staining based flow cytometry analysis (Rvb=55.3%); type: functional
[30] = test system: A549; assay: Induction of apoptosis in human A549 cells assessed as necrotic cells at 0.4 uM incubated for 24 hrs by AnnexinV-FITC/propidium iodide staining-based flow cytometric analysis (reference value: 3.6%); type: functional
[31] = biological target: RAC-alpha serine/threonine-protein kinase (Homo sapiens) (UniProt P31749); assay: Inhibition of Akt phosphorylation in human A549 cells incubated for 8 hrs by Western blot analysis; type: cell-based
Chain of RAC-alpha serine/threonine-protein kinase (Homo sapiens) (P31749 whole entry): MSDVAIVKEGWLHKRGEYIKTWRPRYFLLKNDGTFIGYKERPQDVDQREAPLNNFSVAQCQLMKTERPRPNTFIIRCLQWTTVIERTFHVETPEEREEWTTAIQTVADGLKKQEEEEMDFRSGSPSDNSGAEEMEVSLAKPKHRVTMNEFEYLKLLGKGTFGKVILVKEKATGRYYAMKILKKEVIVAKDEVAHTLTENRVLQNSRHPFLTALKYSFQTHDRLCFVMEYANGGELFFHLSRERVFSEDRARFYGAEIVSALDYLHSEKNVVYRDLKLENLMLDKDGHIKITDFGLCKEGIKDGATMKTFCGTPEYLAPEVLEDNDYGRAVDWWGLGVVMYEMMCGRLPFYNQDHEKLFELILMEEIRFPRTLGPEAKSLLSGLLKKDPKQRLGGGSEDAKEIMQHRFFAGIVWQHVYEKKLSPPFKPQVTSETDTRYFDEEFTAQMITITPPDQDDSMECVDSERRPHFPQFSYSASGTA

[32] = test system: A549; assay: Inhibition of Hsp90-Cdc37 interaction in human A549 cells assessed as decrease in Cdc37 protein level at 5 uM incubated for 6 hrs by immunoprecipitation assay; type: cell-based
[33] = test system: A549; assay: Induction of apoptosis in human A549 cells assessed as early apoptotic cells at 0.6 uM incubated for 24 hrs by AnnexinV-FITC/propidium iodide staining-based flow cytometric analysis (reference value: 4.1%); type: functional
[34] = test system: HepG2; assay: Cytotoxicity against human HepG2 cells assessed as reduction in cell viability incubated for 48 hrs by MTT assay; type: functional, cell-based; details: HepG2, 48 h
[35] = test system: A549; assay: Induction of apoptosis in human A549 cells incubated for 48 hrs by Hoechst 33342 staining-based fluorescence microscopy; type: functional, cell-based
[36] = test system: A549; assay: Induction of apoptosis in human A549 cells assessed as late apoptotic cells at 0.2 uM incubated for 24 hrs by AnnexinV-FITC/propidium iodide/propidium iodide staining-based flow cytometric analysis (reference value: 4.2%); type: functional

With `COC(=O)/C=C\c1ccc(OC)c(OCCOC(=O)[C@]2(C)CC[C@]3(C)CC[C@]4(C)C5=CC=C6C(=CC(=O)C(O)=C6C)[C@]5(C)CC[C@@]4(C)[C@@H]3C2)c1` the Activity [1] was 52.22%, the Activity [2] was “Dose-dependent effect” and the Activity [3] was 5.52%. For the same molecule, the Activity [4] was “Dose-dependent effect”, the Activity [5] was 9.56% and the viability at 0.4 µM [6] was 69.9%. The Activity [7] was 68.04%, the Activity [8] was “Dose-dependent effect” and the Activity [9] was 16.1%. The Activity [10] was “Active”, the Activity [11] was 61% and the Activity [12] was 61.95%. The Activity [13] was “Dose-dependent effect”, the Activity [14] was 29.7% and the Activity [15] was 11.9%. For the same molecule, the Activity [16] was “Active”, the Activity [17] was “Dose-dependent effect” and the Activity [18] was 6.9%. The Activity [19] was 36.32%, the Activity [20] was 5.3% and the Activity [21] was “Active”. The Activity [22] was 4.4%, the Activity [23] was 32.45% and the viability at 1.2 µM [24] was 24.6%. It also gave an Activity [25] of 10.87%, an Activity [26] of 27.6% and an Activity [27] of 4.5%. For the same molecule, the Activity [28] was 10.44%, the Activity [29] was 53.02% and the Activity [30] was 3.7%. For the same molecule, the inhibition [31] was “Dose-dependent effect”, the inhibition [32] was “Active” and the Activity [33] was 17.3%. The IC50 [34] was 260 nM, the Activity [35] was “Dose-dependent effect” and the Activity [36] was 12.7%.

Source: ChEMBL document CHEMBL4393691, “Design, synthesis and antitumor evaluation of novel celastrol derivatives” (Eur J Med Chem, 2019)
